Results from publication PMC9821108, “Biochemical and Structural Analyses Shed Light on the Mechanisms of RadD DNA Binding and Its ATPase from Escherichia coli” (International Journal of Molecular Sciences, 2023).

Assays:
[1] = target: T1, RadD (Escherichia coli, UniProt P33919); test: X-ray crystal structure, […] Å; assay type: binding; conditions: co-crystallised with 5 mM ATPγS, no Mg added; site between RD1 and RD2
T1 construct: recombinant RadD from RadD-pET-28a / RadD-pGEX-6p-1 plasmids expressed in E. coli; full-length with RD1, RD2, ZFD, CTD
T1 sequence (P33919 1-586): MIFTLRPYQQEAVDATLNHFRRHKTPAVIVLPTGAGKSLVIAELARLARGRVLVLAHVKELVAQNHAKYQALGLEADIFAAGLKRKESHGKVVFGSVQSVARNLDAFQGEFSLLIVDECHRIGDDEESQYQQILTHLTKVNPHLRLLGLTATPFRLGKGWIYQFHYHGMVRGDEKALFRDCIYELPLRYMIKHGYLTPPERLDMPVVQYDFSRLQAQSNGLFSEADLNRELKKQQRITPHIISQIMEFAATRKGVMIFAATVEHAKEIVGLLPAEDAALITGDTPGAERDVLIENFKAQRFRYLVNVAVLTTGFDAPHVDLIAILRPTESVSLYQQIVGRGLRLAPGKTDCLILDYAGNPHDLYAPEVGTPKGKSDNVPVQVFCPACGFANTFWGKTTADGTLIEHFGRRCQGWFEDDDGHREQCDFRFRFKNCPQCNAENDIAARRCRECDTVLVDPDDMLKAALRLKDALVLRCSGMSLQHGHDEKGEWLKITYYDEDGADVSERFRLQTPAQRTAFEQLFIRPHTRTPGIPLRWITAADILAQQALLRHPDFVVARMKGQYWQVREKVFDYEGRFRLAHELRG

[2] = target: T1, RadD; test: X-ray crystal structure, […] Å; assay type: binding; conditions: co-crystallised with 5 mM ATP and 5 mM MgCl2, ATP hydrolysed to ADP in the crystal; site between RD1 and RD2
[3] = target: RadD CTD (Escherichia coli) (UniProt P33919); test: EMSA; conditions: 20 mM Bis-Tris pH 6.5, 50 mM NaCl, 15% glycerol, 10 mM beta-mercaptoethanol, 37 C 30 min, 33 nM HJ, 0-20 uM RadD; 8% native PAGE in 0.5x TBE; text says …
[4] = target: RadD ZFD (Escherichia coli) (UniProt P33919); test: EMSA; conditions: 20 mM Bis-Tris pH 6.5, 50 mM NaCl, 15% glycerol, 10 mM beta-mercaptoethanol, 37 C 30 min, 33 nM HJ, 0-20 uM RadD; 8% native PAGE in 0.5x TBE; text says …
[5] = target: T2, RadD (Escherichia coli, UniProt P33919, K68A); test: malachite green phosphate release ATPase assay; assay type: biochemical; conditions: 0.375 μM enzyme, 1 mM ATP; buffer as above
T2 construct: recombinant RadD from RadD-pET-28a / RadD-pGEX-6p-1 plasmids expressed in E. coli; full-length with RD1, RD2, ZFD, CTD
T2 sequence (P33919 whole entry K68A): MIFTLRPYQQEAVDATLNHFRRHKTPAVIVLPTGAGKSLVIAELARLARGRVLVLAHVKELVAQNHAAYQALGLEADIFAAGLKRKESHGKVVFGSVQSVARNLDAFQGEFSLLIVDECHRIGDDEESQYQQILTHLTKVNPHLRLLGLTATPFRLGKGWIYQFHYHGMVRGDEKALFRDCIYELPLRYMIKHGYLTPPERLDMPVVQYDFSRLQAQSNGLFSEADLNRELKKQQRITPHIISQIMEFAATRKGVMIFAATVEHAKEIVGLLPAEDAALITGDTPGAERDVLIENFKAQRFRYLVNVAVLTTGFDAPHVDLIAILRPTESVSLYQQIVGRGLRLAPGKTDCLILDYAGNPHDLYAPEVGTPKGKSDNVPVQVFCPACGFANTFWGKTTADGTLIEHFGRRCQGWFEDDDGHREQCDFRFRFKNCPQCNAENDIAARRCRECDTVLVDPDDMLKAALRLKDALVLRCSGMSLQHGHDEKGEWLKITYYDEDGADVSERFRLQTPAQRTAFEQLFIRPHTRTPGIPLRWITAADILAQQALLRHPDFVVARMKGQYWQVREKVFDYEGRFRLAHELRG

[6] = target: T3, RadD (Escherichia coli, UniProt P33919, R343A); test: malachite green phosphate release ATPase assay; assay type: biochemical; conditions: 0.375 μM enzyme, 1 mM ATP; buffer as above
T3 construct: recombinant RadD from RadD-pET-28a / RadD-pGEX-6p-1 plasmids expressed in E. coli; full-length with RD1, RD2, ZFD, CTD
T3 sequence (P33919 whole entry R343A): as the sequence (P33919 whole entry K68A) above, with A68K, R343A counted along it

[7] = target: T4, RadD (Escherichia coli, UniProt P33919, R6A); test: malachite green phosphate release ATPase assay; assay type: biochemical; conditions: 0.375 μM enzyme, 1 mM ATP; buffer as above
T4 construct: recombinant RadD from RadD-pET-28a / RadD-pGEX-6p-1 plasmids expressed in E. coli; full-length with RD1, RD2, ZFD, CTD
T4 sequence (P33919 whole entry R6A): as the sequence (P33919 whole entry K68A) above, with R6A, A68K counted along it

[8] = target: T5, RadD (Escherichia coli, UniProt P33919, G36E); test: malachite green phosphate release ATPase assay; assay type: biochemical; conditions: 0.375 μM enzyme, 1 mM ATP; buffer as above
T5 construct: recombinant RadD from RadD-pET-28a / RadD-pGEX-6p-1 plasmids expressed in E. coli; full-length with RD1, RD2, ZFD, CTD
T5 sequence (P33919 whole entry G36E): as the sequence (P33919 whole entry K68A) above, with G36E, A68K counted along it

[9] = target: T6, RadD (Escherichia coli, UniProt P33919, G34E); test: malachite green phosphate release ATPase assay; assay type: biochemical; conditions: 0.375 μM enzyme, 1 mM ATP; buffer as above
T6 construct: recombinant RadD from RadD-pET-28a / RadD-pGEX-6p-1 plasmids expressed in E. coli; full-length with RD1, RD2, ZFD, CTD
T6 sequence (P33919 whole entry G34E): as the sequence (P33919 whole entry K68A) above, with G34E, A68K counted along it

[10] = target: T7, RadD (Escherichia coli, UniProt P33919, K37A); test: malachite green phosphate release ATPase assay; assay type: biochemical; conditions: 0.375 μM enzyme, 1 mM ATP; buffer as above
T7 construct: recombinant RadD from RadD-pET-28a / RadD-pGEX-6p-1 plasmids expressed in E. coli; full-length with RD1, RD2, ZFD, CTD
T7 sequence (P33919 whole entry K37A): as the sequence (P33919 whole entry K68A) above, with K37A, A68K counted along it

[11] = target: T8, RadD (Escherichia coli, UniProt P33919, D117R); test: malachite green phosphate release ATPase assay; assay type: biochemical; conditions: 0.375 μM enzyme, 1 mM ATP; buffer as above
T8 construct: recombinant RadD from RadD-pET-28a / RadD-pGEX-6p-1 plasmids expressed in E. coli; full-length with RD1, RD2, ZFD, CTD
T8 sequence (P33919 whole entry D117R): as the sequence (P33919 whole entry K68A) above, with A68K, D117R counted along it

[12] = substrate: Nc1ncnc2c1ncn2[C@@H]1O[C@H](COP(=O)(O)OP(=O)(O)OP(=O)(O)O)[C@@H](O)[C@H]1O; test: malachite green phosphate release ATPase assay; assay type: biochemical, Escherichia coli; conditions: 0.4 μM RadD, 20 mM Hepes pH 7.5, 150 mM NaCl, 3 mM MgCl2, 20 °C, 30 min, no DNA or SSB

In the case of `Nc1ncnc2c1ncn2[C@@H]1O[C@H](COP(=O)(O)OP(=O)(O)OP(O)(O)=S)[C@@H](O)[C@H]1O` [ATPγS], the “X-ray crystal structure, 3.0 Å” value [1] is reported as “RadD/ATPγS PDB: 8H5Z”.

With `Nc1ncnc2c1ncn2[C@@H]1O[C@H](COP(=O)(O)OP(=O)(O)O)[C@@H](O)[C@H]1O` [ADP] the “X-ray crystal structure, 2.7 Å” value [2] was “RadD/ADP PDB: 8H5Y”.

In the case of “CCGCTACCAGTGATCACCAATGGATTGCTAGGACATCTTTGCCCACCTGCAGGTTCACCC / TGGGTGAACCTGCAGGTGGGCAAAGATGTCCTAGCAATCCATTGTCTATGACGTCAAGCTC / GAGCTTGACGTCATAGACAATGGATTGCTAGGACATCTTTGCCGTCTTGTCAATATCGGC / TGCCGATATTGACAAGACGGCAAAGATGTCCTAGCAATCCATTGGTGATCACTGGTAGCGG [Holliday junction (HJ)]”, the binding signal [3] is reported as 47 % of WT and the binding signal [4] is reported as 43 % of WT.

`Nc1ncnc2c1ncn2[C@@H]1O[C@H](COP(=O)(O)OP(=O)(O)OP(=O)(O)O)[C@@H](O)[C@H]1O` [ATP] was tested, and the ATPase activity [5] was “The ATPase activity of mutant K68A is three times that of the wild-type”, the ATPase activity [6] was “mutant G34E, G36E, K37A, D117R, and R343A lost their ATPase activity” and the ATPase activity [7] was “mutants R6A and N9A were not significantly different from the wild-type”. For the same molecule, the ATPase activity [8] was “mutant G34E, G36E, K37A, D117R, and R343A lost their ATPase activity”, the ATPase activity [9] was “mutant G34E, G36E, K37A, D117R, and R343A lost their ATPase activity” and the ATPase activity [10] was “mutant G34E, G36E, K37A, D117R, and R343A lost their ATPase activity”. For the same molecule, the ATPase activity [11] was “mutant G34E, G36E, K37A, D117R, and R343A lost their ATPase activity”.

B1: RadD (Escherichia coli K-12) (protein)
chain: T1 sequence (P33919 1-586)
notes: recombinant RadD from RadD-pET-28a / RadD-pGEX-6p-1 plasmids expressed in E. coli; full-length with RD1, RD2, ZFD, CTD
Work on B1 yielded a Km [12] of 3.48 mM.
